Measured values as given in patent US8906929B2, “Inhibitors of human immunodeficiency virus replication” (priority 2012, dated 2014).
pEC50: −log10 of the molar value.

test system: recombinant NL-Rluc virus; assay: Inhibition of HIV replication (NL-RLuc virus in MT-2 cells, luciferase readout); assay type: cell-based; conditions: Human immunodeficiency virus 1, MT2, 120 h, 5 days of incubation, 10% FBS

SMILES | pEC50
Cc1nc2cc3nn2c(c1[C@H](OC(C)(C)C)C(=O)O)N1CCC(C)(CC1)OCCC[C@H](C)Oc1ccccc1-c1cccc-3c1 [Example 24, (2S)-2-(tert-Butoxy)-2-[(22S)-4,22,27-trimethyl-21,26-dioxa-1,5,7,8-tetraazahexacyclo[25.2.2.1^6,^9.1^10,^14.0^2,^7.0^15,^20]tritriaconta-2,4,6(33),8,10(32),11,13,15(20),16,18-decaen-3-yl]acetic acid] | 8.10
Cc1nc2cc3nn2c(c1[C@H](OC(C)(C)C)C(=O)O)N1CCC(C)(CC1)OCCC[C@@H](C)Oc1ccccc1-c1cccc-3c1 [Example 25, (2S)-2-(tert-Butoxy)-2-[(22R)-4,22,27-trimethyl-21,26-dioxa-1,5,7,8-tetraazahexacyclo[25.2.2.1^6,^9.1^10,^14.0^2,^7.0^15,^20]tritriaconta-2,4,6(33),8,10(32),11,13,15(20),16,18-decaen-3-yl]acetic acid] | 7.42
Cc1nc2cc3nn2c(c1[C@H](OC(C)(C)C)C(=O)O)N1CCC(C)(CC1)OCC=CCCOc1ccccc1-c1cccc-3c1 [Example 26, (2S)-2-(tert-Butoxy)-2-[4,28-dimethyl-21,27-dioxa-1,5,7,8-tetraazahexacyclo[26.2.2.1^6,^9.1^10,^14.0^2,^7.0^15,^20]tetratriaconta-2,4,6(34),8,10(33),11,13,15(20),16,18,24-undecaen-3-yl]acetic acid] | 7.39
Cc1nc2cc3nn2c(c1[C@H](OC(C)(C)C)C(=O)O)N1CCC(C)(CC1)OCCCCCOc1ccccc1-c1cccc-3c1 [Example 27, (2S)-2-(tert-Butoxy)-2-{4,28-dimethyl-21,27-dioxa-1,5,7,8-tetraazahexacyclo[26.2.2.1^6,^9.1^10,^14.0^2,^7.0^15,^20]tetratriaconta-2,4,6(34),8,10(33),11,13,15(20),16,18-decaen-3-yl}acetic acid] | 8.00
Cc1nc2cc3nn2c(c1[C@H](OC(C)(C)C)C(=O)O)N1CCC(C)(CC1)OCCCC[C@@H](C)Oc1ccccc1-c1cccc-3c1 [Example 28, (2S)-2-(tert-Butoxy)-2-[(22R)-4,22,28-trimethyl-21,27-dioxa-1,5,7,8-tetraazahexacyclo[26.2.2.1^6,^9.1^10,^14.0^2,^7.0^15,^20]tetratriaconta-2,4,6(34),8,10(33), 11, 13, 15 (20),16,18-decaen-3-yl]acetic acid] | 7.40
Cc1nc2cc3nn2c(c1[C@H](OC(C)(C)C)C(=O)O)N1CCC(C)(CC1)OCCCC[C@H](C)Oc1ccccc1-c1cccc-3c1 [Example 29, (2S)-2-(tert-Butoxy)-2-[(22S)-4,22,28-trimethyl-21,27-dioxa-1,5,7,8-tetraazahexacyclo[26.2.2.1^6,^9.1^10,^14.0^2,^7.0^15,^20]tetratriaconta-2,4,6(34),8,10(33), 11, 13, 15 (20),16,18-decaen-3-yl]acetic acid] | 7.74
Cc1nc2cc3nn2c(c1[C@H](OC(C)(C)C)C(=O)O)N1CCC(C)(CC1)OCCCCCCc1ccccc1-c1cccc-3c1 [Example 30, (2S)-2-(tert-Butoxy)-2-{4,28-dimethyl-27-oxa-1,5,7,8-tetraazahexacyclo[26.2.2.1^6,^9.1^10,^14.0^2,^7.0^15,^20]tetratriaconta-2,4,6(34),8,10(33), 11, 13, 15(20),16,18-decaen-3-yl}acetic acid] | 7.57
Cc1nc2cc3nn2c(c1[C@H](OC(C)(C)C)C(=O)O)N1CCC(C)(CC1)OCC=CCOc1ccc(Cl)cc1-c1cccc-3c1 [Example 31, (2S)-2-(tert-Butoxy)-2-[17-chloro-4,2,7-dimethyl-21,26-dioxa-1,5,7,8-tetraazahexacyclo[25.2.2.1^6,^9.1^10,^14.0^2,^7.0^15,^20]tritriaconta-2,4,6(33),8,10(32),11,13,15(20),16,18,23-undecaen-3-yl]acetic acid] | 8.22
Cc1nc2cc3nn2c(c1[C@H](OC(C)(C)C)C(=O)O)N1CCC(C)(CC1)OCCCCOc1ccc(Cl)cc1-c1cccc-3c1 [Example 32, (2S)-2-(tert-Butoxy)-2-{17-chloro-4,27-dimethyl-21,26-dioxa-1,5,7,8-tetraazahexacyclo[25.2.2.1^6,^9.1^10,^14.0^2,^7.0^15,^20]tritriaconta-2,4,6(33),8,10(32),11,13,15(20),16,18-decaen-3-yl}acetic acid] | 8.05
Cc1ccc2c(c1)-c1cccc(c1)-c1cc3nc(C)c([C@H](OC(C)(C)C)C(=O)O)c(n3n1)N1CCC(C)(CC1)OCC=CCO2 [Example 33, (2S)-2-(tert-Butoxy)-2-[4,17,27-trimethyl-21,26-dioxa-1,5,7,8-tetraazahexacyclo[25.2.2.1^6,^9.1^10,^14.0^2,^7.0^15,^20]tritriaconta-2,4,6(33),8,10(32),11,13,15(20),16,18,23-undecaen-3-yl]acetic acid] | 8.10
Cc1ccc2c(c1)-c1cccc(c1)-c1cc3nc(C)c([C@H](OC(C)(C)C)C(=O)O)c(n3n1)N1CCC(C)(CC1)OC=CCCO2 [Example 34, (2S)-2-(tert-Butoxy)-2-[4,17,27-trimethyl-21,26-dioxa-1,5,7,8-tetraazahexacyclo[25.2.2.1^6,^9.1^10,^14.0^2,^7.0^15,^20]tritriaconta-2,4,6(33),8,10(32),11,13,15(20),16,18,24-undecaen-3-yl]acetic acid] | 7.85
Cc1ccc2c(c1)-c1cccc(c1)-c1cc3nc(C)c([C@H](OC(C)(C)C)C(=O)O)c(n3n1)N1CCC(C)(CC1)OCCCCO2 [Example 35, (2S)-2-(tert-Butoxy)-2-{4,17,27-trimethyl-21,26-dioxa-1,5,7,8-tetraazahexacyclo[25.2.2.1^6,^9.1^10,^14.0^2,^7.0^15,^20]tritriaconta-2,4,6(33),8,10(32),11,13,15(20),16,18-decaen-3-yl}acetic acid] | 8.00
Cc1nc2cc3nn2c(c1[C@H](OC(C)(C)C)C(=O)O)N1CCC(C)(CC1)OC/C=C/CCc1ccncc1-c1cccc-3c1 [Example 36, (2S)-2-(tert-Butoxy)-2-[(23E)-4,27-dimethyl-26-oxa-1,5,7,8,17-pentaazahexacyclo[25.2.2.1^6,^9.1^10,^14.0^2,^7.0^15,^20]tritriaconta-2,4,6(33),8,10(32),11,13,15(20),16,18,23-undecaen-3-yl]acetic acid] | 7.47
Cc1nc2cc3nn2c(c1[C@H](OC(C)(C)C)C(=O)O)N1CCC(C)(CC1)OC/C=C\CCc1ccncc1-c1cccc-3c1 [Example 37, (2S)-2-(tert-Butoxy)-2-[(23Z)-4,27-dimethyl-26-oxa-1,5,7,8,17-pentaazahexacyclo[25.2.2.1^6,^9.1^10,^14.0^2,^7.0^15,^20]tritriaconta-2,4,6(33),8,10(32), 11, 13, 15(20),16,18,23-undecaen-3-yl]acetic acid] | 8.70
Cc1nc2cc3nn2c(c1[C@H](OC(C)(C)C)C(=O)O)N1CCC(C)(CC1)OCCCCCc1ccncc1-c1cccc-3c1 [Example 38, (2S)-2-(tert-Butoxy)-2-{4,27-dimethyl-26-oxa-1,5,7,8,17-pentaazahexacyclo[25.2.2.1^6,^9.1^10,^14.0^2,^7.0^15,^20]tritriaconta-2,4,6(33),8,10(32), 11, 13, 15 (20),16,18-decaen-3-yl}acetic acid] | 8.70
Cc1nc2cc3nn2c(c1[C@H](OC(C)(C)C)C(=O)O)N1CCC(C)(/C=C/C=C\CCc2ccccc2-c2cccc-3c2)CC1 [Example 39, (2S)-2-(tert-Butoxy)-2-[(23Z,25E)-4,27-dimethyl-1,5,7,8-tetraazahexacyclo[25.2.2.1^6,^9.1^10,^14.0^2,^7.0^15,^20]tritriaconta-2,4,6(33),8,10(32),11,13, 15(20), 16,18,23,25-dodecaen-3-yl]acetic acid] | 6.93
Cc1nc2cc3nn2c(c1[C@H](OC(C)(C)C)C(=O)O)N1CCC(C)(/C=C/C=C/CCc2ccccc2-c2cccc-3c2)CC1 [Example 40, (2S)-2-(tert-Butoxy)-2-[(23E,25E)-4,27-dimethyl-1,5,7,8-tetraazahexacyclo[25.2.2.1^6,^9.1^10,^14.0^2,^7.0^15,^20]tritriaconta-2,4,6(33),8,10(32),11,13, 15(20), 16,18,23,25-dodecaen-3-yl]acetic acid] | 7.47
Cc1nc2cc3nn2c(c1[C@H](OC(C)(C)C)C(=O)O)N1CCC(C)(CCCCCCc2ccccc2-c2cccc-3c2)CC1 [Example 41, (2S)-2-(tert-Butoxy)-2-{4,27-dimethyl-1,5,7,8-tetraazahexacyclo[25.2.2.1^6,^9.1^10,^14.0^2,^7.0^15,^20]tritriaconta-2,4,6(33),8,10(32), 11,13,15(20),16,18-decaen-3-yl}acetic acid] | 6.74
Cc1nc2cc3nn2c(c1[C@H](OC(C)(C)C)C(=O)O)N1CCC(C)(/C=C/C=C\COc2ccc(Cl)cc2-c2cccc-3c2)CC1 [Example 42, (2S)-2-(tert-Butoxy)-2-[(23Z,25E)-17-chloro-4,27-dimethyl-21-oxa-1,5,7,8-tetraazahexacyclo[25.2.2.1^6,^9.1^10,^14.0^2,^7.0^15,^20]tritriaconta-2,4,6(33),8,10(32), 11, 13, 15(20),16,18,23,25-dodecaen-3-yl]acetic acid] | 7.46
Cc1nc2cc3nn2c(c1[C@H](OC(C)(C)C)C(=O)O)N1CCC(C)(/C=C/C=C/COc2ccc(Cl)cc2-c2cccc-3c2)CC1 [Example 43, (2S)-2-(tert-Butoxy)-2-[(23E,25E)-17-chloro-4,27-dimethyl-21-oxa-1,5,7,8-tetraazahexacyclo[25.2.2.1^6,^9.1^10,^14.0^2,^7.0^15,^20]tritriaconta-2,4,6(33),8,10(32), 11, 13, 15(20),16,18,23,25-dodecaen-3-yl]acetic acid] | 6.87
Cc1nc2cc3nn2c(c1[C@H](OC(C)(C)C)C(=O)O)N1CCC(C)(CCCCCOc2ccc(Cl)cc2-c2cccc-3c2)CC1 [Example 44, (2S)-2-(tert-Butoxy)-2-{17-chloro-4,27-dimethyl-21-oxa-1,5,7,8-tetraazahexacyclo[25.2.2.1^6,^9.1^10,^14.0^2,^7.0^15,^20]tritriaconta-2,4, 6(33), 8, 10(32), 11, 13, 15 (20),16,18-decaen-3-yl}acetic acid] | 7.39
